The source of these data is publication PMC6736568, “Discovery of Novel Anti-cryptosporidial Activities From Natural Products by in vitro High-Throughput Phenotypic Screening” (Frontiers in Microbiology, 2019).

The subject of one data set is Cryptosporidium parvum. Description: qRT-PCR assay of the growth of C. parvum in vitro in HCT-8 host cells (primary and secondary screening, EC50). The note with it: Cryptosporidium parvum, HCT-8; primary screening at 10 uM; read-out: Inhibition (%). In kind it is cell-based. A general note: Quantitative PCR measures a nucleic acid by following its amplification.
Another data set can be described thus: in vitro. The note with it: for cytotoxicity at 41 h, 10 µM: human.
Where [1] appears, read: primary screening at 10 uM, treated vs control.

Read-outs that look alike come from different tables or passages of the source.

By inhibition is commonly meant the change of the read-out against control, counted positive when it falls. `COc1cc(C)c(C(=O)O)c(O)c1` [EVERNINIC ACID]: the inhibition at 10 µM with Cryptosporidium parvum was 52.1%. For the same compound, the “Hs18S ΔCT” value with HCT-8 host cells (Hs18S) (human, 41 h, 10 μM) is recorded as -0.34. Moreover, the cytotoxicity at 41 h, 10 µM in the data set “in vitro” is -26.6%.

In the case of `COc1c2ccoc2nc2c(OC)c(OCC(O)C(C)(C)O)ccc12` (stereo not drawn) [EVOXINE], the inhibition at 10 µM in the data set with Cryptosporidium parvum was -7.37%. The “Hs18S ΔCT” value in the data set on HCT-8 host cells (Hs18S) (human, 41 h, 10 μM) is recorded as 0.11. The cytotoxicity at 41 h, 10 µM in the data set “in vitro” was 7%.

As for `CC(C)=CCC/C(C)=C/CC/C(C)=C/CO` [FARNESOL], the inhibition at 10 µM with Cryptosporidium parvum amounted to 8.75%. Also, in the data set on HCT-8 host cells (Hs18S) (human, 41 h, 10 μM), the “Hs18S ΔCT” value stood at 0.02. Besides, in “in vitro”, the cytotoxicity at 41 h, 10 µM was found to be 1%.

Turning to `COC(=O)C[C@H]1C(C)(C)[C@@H](OC(C)=O)[C@@H]2CC3=C4CC(=O)O[C@@H](c5ccoc5)[C@]4(C)CC[C@@H]3[C@@]1(C)C2=O` [FISSINOLIDE], in the data set on Cryptosporidium parvum, the inhibition at 10 µM was -39.8%. Besides, the “Hs18S ΔCT” value in the data set on HCT-8 host cells (Hs18S) (human, 41 h, 10 μM) is on record as -0.81. Moreover, the cytotoxicity at 41 h, 10 µM in “in vitro” was -75.3%.

Consider `Nc1nc2ncc(CNc3ccc(C(=O)N[C@@H](CCC(=O)O)C(=O)O)cc3)nc2c(=O)[nH]1` [FOLIC ACID], for which, in the data set with Cryptosporidium parvum, the inhibition at 10 µM came to 3.63%. Moreover, in the data set on HCT-8 host cells (Hs18S) (human, 41 h, 10 μM), the “Hs18S ΔCT” value was 0.02. For the same compound, in “in vitro”, the cytotoxicity at 41 h, 10 µM was 1.3%.

Turning to `COc1ccc(-c2coc3cc(O)ccc3c2=O)cc1` [FORMONONETIN], in the data set on Cryptosporidium parvum, the inhibition at 10 µM was 13.2%. In the data set on HCT-8 host cells (Hs18S) (human, 41 h, 10 μM), the “Hs18S ΔCT” value was -0.62. For the same compound, in “in vitro”, the cytotoxicity at 41 h, 10 µM was -53.6%.

As to `COc1cc2ccc(=O)oc2c(OC)c1OC` [FRAXIDIN METHYL ETHER], in the data set on Cryptosporidium parvum, the inhibition at 10 µM was -37.3%. The “Hs18S ΔCT” value with HCT-8 host cells (Hs18S) (setting [1]) was -0.48. In addition, the cytotoxicity at 10 µM in “in vitro” was -39.5%.

Regarding `C[C@H]1C(=O)CC[C@@H]2[C@]1(C)CC[C@H]1[C@@]2(C)CC[C@@]2(C)[C@@H]3CC(C)(C)CC[C@]3(C)CC[C@]12C` [FRIEDELIN], the inhibition at 10 µM in the data set on Cryptosporidium parvum amounted to 20.8%. The “Hs18S ΔCT” value in the data set with HCT-8 host cells (Hs18S) (setting [1]) is -0.23. In “in vitro”, the cytotoxicity at 10 µM was -17.6%.

As for `Cc1cc(O)c(C=O)c2c1C(=O)Oc1c(COC(=O)/C=C/C(=O)O)c(O)c(C(=O)O)c(C)c1O2` [FUMARPROTOCETRARIC ACID], in the data set with Cryptosporidium parvum, the inhibition at 10 µM was -5.48%. For the same compound, in the data set on HCT-8 host cells (Hs18S) (human, 41 h, 10 μM), the “Hs18S ΔCT” value amounted to 0.10. Moreover, the cytotoxicity at 41 h, 10 µM in “in vitro” stood at 6.9%.

Turning to `CC(=O)O[C@H]1C[C@@]2(C)[C@@H](C[C@@H](O)[C@H]3[C@@]4(C)CC[C@@H](O)[C@@H](C)[C@@H]4CC[C@@]32C)/C1=C(\CCC=C(C)C)C(=O)O` [FUSIDIC ACID], the inhibition at 10 µM in the data set with Cryptosporidium parvum is -82.8%. Further, the “Hs18S ΔCT” value with HCT-8 host cells (Hs18S) (human, 41 h, 10 μM) was -0.30. Further, the cytotoxicity at 41 h, 10 µM in “in vitro” was -23.2%.

As for `O=c1c(O)c(-c2ccccc2)oc2cc(O)cc(O)c12` [GALANGIN], the inhibition at 10 µM in the data set with Cryptosporidium parvum is -14.9%. In addition, the “Hs18S ΔCT” value with HCT-8 host cells (Hs18S) (setting [1]) turned out to be 0.39. For the same compound, the cytotoxicity at 10 µM in the data set “in vitro” is 23.6%.

In the case of `COc1ccc2c3c1O[C@H]1C[C@@H](O)C=C[C@@]31CCN(C)C2` [GALANTAMINE], the inhibition at 10 µM with Cryptosporidium parvum worked out at 2.66%. Further, the “Hs18S ΔCT” value in the data set on HCT-8 host cells (Hs18S) (setting [1]) was -0.34. In the data set “in vitro”, the cytotoxicity at 10 µM is -26.2%.

On to `COC(=O)c1c(OC)cc2c(c1C)Oc1c(Cl)c(O)c(Cl)c(C)c1C(=O)O2` [GANGALEOIDIN], for which the inhibition at 10 µM in the data set on Cryptosporidium parvum was -21.6%. Also, in the data set with HCT-8 host cells (Hs18S) (human, 41 h, 10 μM), the “Hs18S ΔCT” value is given as -0.05. The cytotoxicity at 41 h, 10 µM in the data set “in vitro” is -3.3%.

`CC(C)=CCCC1(C)C=Cc2c(O)c3c(c(CC=C(C)C)c2O1)OC12C(=CCCC1C(C)(C)O[C@@]2(C/C=C(\C)C(=O)O)C(=O)O)C3=O` (stereo partly drawn) [GARCINOLIC ACID]: the inhibition at 10 µM with Cryptosporidium parvum is -51.3%. For the same compound, the “Hs18S ΔCT” value with HCT-8 host cells (Hs18S) (human, 41 h, 10 μM) was 0.36. In addition, in the data set “in vitro”, the cytotoxicity at 41 h, 10 µM was found to be 22%.

With `COc1ccc(-c2cc(=O)c3c(O)c(OC)c(OC)c(OC)c3o2)cc1` [GARDENIN B], the inhibition at 10 µM with Cryptosporidium parvum came out at 53.6%. In addition, in the data set on HCT-8 host cells (Hs18S) (human, 41 h, 10 μM), the “Hs18S ΔCT” value stood at 0.25. Moreover, the cytotoxicity at 41 h, 10 µM in “in vitro” amounted to 16%.

As for `CC(=O)O[C@@H]1C[C@H]2C(C)(C)C(=O)C=C[C@]2(C)[C@H]2CC[C@@]3(C)[C@H](c4ccoc4)OC(=O)[C@H]4O[C@]43[C@@]21C` [GEDUNIN], in the data set with Cryptosporidium parvum, the inhibition at 10 µM is 6.58%. In addition, the “Hs18S ΔCT” value with HCT-8 host cells (Hs18S) (human, 41 h, 10 μM) was found to be 0.02. Besides, the cytotoxicity at 41 h, 10 µM in the data set “in vitro” worked out at 1.2%.

Consider `CN[C@@H]1[C@@H](O)[C@@H](O[C@@H]2[C@@H](O)[C@H](O[C@H]3O[C@H]([C@@H](C)O)[C@@H](O)[C@H](O)[C@H]3N)[C@@H](N)C[C@H]2N)OC[C@]1(C)O` [GENETICIN], for which the inhibition at 10 µM in the data set on Cryptosporidium parvum is -26.1%. In addition, the “Hs18S ΔCT” value with HCT-8 host cells (Hs18S) (setting [1]) came to 0.07. The cytotoxicity at 10 µM in “in vitro” is 4.9%.

Take `O=c1c(-c2ccc(O)cc2)coc2cc(O)cc(O)c12` [GENISTEIN]: in the data set with Cryptosporidium parvum, the inhibition at 10 µM worked out at 6.85%. Also, in the data set on HCT-8 host cells (Hs18S) (setting [1]), the “Hs18S ΔCT” value is listed as 0.20. In addition, in the data set “in vitro”, the cytotoxicity at 10 µM is 12.7%.

With `COc1cc(O)c2c(=O)cc(-c3ccc(O)cc3)oc2c1` [GENKWANIN], the inhibition at 10 µM in the data set on Cryptosporidium parvum was -9.13%. For the same compound, the “Hs18S ΔCT” value in the data set on HCT-8 host cells (Hs18S) (setting [1]) is -0.83. Also, the cytotoxicity at 10 µM in the data set “in vitro” is -77.7%.
